For experiment [1], the system named is juvenile hippocampal slices. Description: HFS-induced synaptic plasticity and its inhibition by Aβ1-42. It is filed as cell-based, Sprague Dawley rats. The note with it: for synaptic transmission after HFS in slices exposed to Aβ1-42: 25 nM before Aβ1-42. On the procedure: Parasagittal hippocampal slices (300 μm) were prepared from either P13-21 or 12-24-week-old male Sprague Dawley rats as previously (Moult et al. 2010). Brains were rapidly removed and placed in ice-cold artificial CSF (aCSF; bubbled with 95% O2 and 5% CO2) containing the following (in mm): 124 NaCl, 3 KCl, 26 NaHCO3, 1.25 NaH2PO4, 2 CaCl2, 1 MgSO4, and 10 d-glucose. Once prepared, parasagittal slices were allowed to recover at room temperature in oxygenated aCSF for 1 h before use. Slices were transferred to a submerged chamber maintained at room temperature and perfused with artificial cerebrospinal fluid at 2 ml min^−1. Standard extracellular recordings were used to monitor evoked field excitatory postsynaptic potentials (fEPSP) from stratum radiatum. The Schaffer collateral-commissural pathway was stimulated (constant voltage; 0.1 ms) at 0.033 Hz, using a stimulus intensity that evoked a peak amplitude ˜50% of the maximum. Synaptic potentials were low pass filtered at 2 kHz and digitally sampled at 10 kHz. The fEPSP slope was measured and expressed relative to baseline. Synaptic records are the average of 4 consecutive responses and stimulus artefacts are blanked for clarity. Recordings were made using an Axopatch 200B amplifier and analyzed using LTP v2.4 software. In synaptic plasticity studies, the degree of potentiation was calculated 30-35 min after HFS and expressed as a percentage of baseline±standard error of mean (SEM).
Several studies indicate that soluble Aβ oligomers impair activity-dependent synaptic plasticity, as exposure to Aβ inhibits hippocampal LTP (Shankar et al. 2008; Li et al. 2009) and enhances LTD (Shankar et al. 2008). Moreover, our recent studies indicate that leptin reverses the detrimental effects of Aβ1-42 on both LTP and LTD (Doherty et al. 2013). Thus we assessed if either of the fragments mirrored the protective actions of leptin on hippocampal synaptic plasticity. Initially we determined that application of leptin prevented the acute effects of Aβ1-42 on LTP. In control slices, synaptic plasticity was induced using high frequency stimulation (HFS; 100 Hz 10 trains of 8 stimuli) which increased synaptic transmission to 127±3.4% of baseline (n=8; P<0.01).

In experiment [2] the test system is phosphorylated tau (p-tau). Description: ELISA of phosphorylated tau relative to α-tubulin. Format: cell-based, human. The conditions noted are these: 10 nM; n=5. On the procedure:
The human neuroblastoma cell line, SH-SY5Y (ECACC, UK) was maintained in Dulbecco's Modified Eagle Medium supplemented with glucose ([…]) and 10% (v/v) cosmic calf serum (Fisher Scientific, UK) at 37° C. in a humidified atmosphere of 5% CO2, 95% air and allowed to reach 70-80% confluence before seeding. Cells (passage 10-18) were plated at 10 000 cells per well in 96 well tissue culture plates (Nunc, VWR, UK) and at a density of 2×10^5 cells in 35 mm dishes for protein extraction. To induce differentiation, cells were cultured in DMEM supplemented with glucose ([…]), 1% (v/v) cosmic calf serum and 10 μM retinoic acid for 5 days. Thereafter they were incubated in DMEM supplemented with glucose ([…]), serum replacement 2 (2%; Sigma, UK) and 18 μM 5-fluorodeoxyuridine to inhibit proliferation of undifferentiated cells. The 50% of the medium was changed every 2-3 days and pharmacological treatment was carried out 7 days after switching to this medium. Reagents used were (from Sigma UK unless stated) 0.1-10 nM human leptin and leptin (116-130); 0.1-10 nM leptin (22-56; Bachem; Switzerland); 10 nM leptin (116-121) leptin (117-122), leptin (124-129) or leptin (125-130; all Severn Biotech, UK); 5 μM copper chloride; […], 5 μM WP1066 or 50 nM wortmannin. All treatments were added to the culture at the same time and survival assays were carried out after 96 h treatment. Protein samples for signaling ELISA were extracted 3 h after exposure to the relevant reagents and for biomarker expression after 72 hours.
Protein from cultures was extracted into 500 μl Tris-buffered saline containing protease inhibitor cocktail, and a Bradford assay used to determine protein concentration. Samples were diluted to give equal loading onto ELISA plates. Commercially available ELISA kits were used in accordance with the manufacturer's instructions to determine the ratio of pan-STAT3 to phospho-STAT3 (Sigma, UK) and pan-Akt to phospho-Akt (Sigma, UK) and the levels of alpha-tubulin and phosphorylated tau (Sigma, UK). Each protein sample was run in duplicate using samples derived from at least 5 biological repeats.
Hyper-phosphorylation of tau is the underpinning mechanism of the development of neurofibrillary tangles—one of the key pathological feature of AD. Human SH-SY5Y neuronal cells were exposed to Aβ1-42 alone or in combination with 10 nM leptin, leptin (116-130), leptin (116-121), leptin (117-122), leptin (124-129) or leptin (125-130). Protein was extracted for ELISA assay and the ratio of p-tau to the house-keeping protein α-tubulin determined (FIG. 11C). […] Thus for Aβ1-42-treated cells, 10 nM leptin and 10 nM leptin (116-130) reduced p-tau expression by 56.2±8.0% and 58.9+4.6% respectively compared with Aβ1-42 alone (n=5; P<0.001; FIG. 11C); an effect that was mirrored by 10 nM leptin (116-121) and leptin (117-122); 58.1±4.0% and 45.48±6.1% (n=5; P<0.001 and P<0.01 respectively; FIG. 11C), but not by 10 nM leptin (124-129) or leptin (125-130)(n=5; P>0.5; FIG. 11C).

For experiment [3], the system named is SH-SY5Y neuronal cultures. Description: Thioflavin S staining of amyloid after seeding with Aβ1-42. Format: cell-based, human. The conditions noted are these: 96 hours after seeding with 1 μM Aβ1-42; leptin116-130 1 nM. The procedure:
The human neuroblastoma cell line, SH-SY5Y (ECACC, UK) was maintained in Dulbecco's Modified Eagle Medium supplemented with glucose ([…]) and 10% (v/v) cosmic calf serum (Fisher Scientific, UK) at 37° C. in a humidified atmosphere of 5% CO2, 95% air and allowed to reach 70-80% confluence before seeding. Cells (passage 10-18) were plated at 2×10^5 cells on 13 mm borosilicate class coverslips or at 10 000 cells per well in 96 well tissue culture plates (Nunc, VWR, UK) prior to treatment. Reagents used were (from Sigma UK unless stated) 1 nM human leptin, leptin (116-121), leptin (117-122) and leptin (117-125); 0.0001-1 nm murine leptin fragments leptin (116-121), leptin (117-122) and leptin (116-130); 100 μM 6-hydroxydopamine; 10 μM CuCl2; […]
After 96 hours, cultures were fixed for 15 minutes in neutral buffered formalin, washed in phosphate buffered saline and stained with 0.05% Thioflavin S for 10 minutes prior to washing in phosphate buffered saline and mounting for visualisation on a fluorescent microscope. Relative fluorescent intensity per cell was determined using post hoc image analysis with Fiji software. Quantitative data is presented as the mean fluorescence per cell relative to control untreated cells.

“leptin (22-56): leptin fragment amino acids 22-56 (Bachem), comparison fragment (VPIQKVQDDTKTLIKTIVTRINDISHTQSVSSKQK; UniProt P41159 22-56, looked up, fragment) [reference compound]”: in experiment [1], the “synaptic transmission after HFS in slices exposed to Aβ1-42” value (“synaptic transmission … to Aβ1-42” below) was 107±3.3 % of baseline. As to “Aβ1-42: amyloid beta 1-42, toxin used in the AD models [reference compound]”, the “synaptic transmission after HFS, Aβ peptide alone” value in experiment [1] (control slices 127±3.4%, 40 min) is listed as 96±7.5 % of baseline. With “CSLPQT (listed as Mus musculus) [leptin (117-122)]”, the “reduction of p-tau expression compared with Aβ1-42 alone” value (“reduction of p-tau expression” for short) in experiment [2] is given as 45.48±6.1%. Also, in experiment [3], the “thioflavin S fluorescent signal per cell (amyloid accumulation)” value (“thioflavin S fluorescent signal per cell” below) was “prevent the accumulation of amyloid beta”. For the substance “leptin: the metabolic hormone leptin, whole (full length) leptin molecule; human leptin from Sigma in SH-SY5Y work”, in experiment [1], the “synaptic transmission … to Aβ1-42” value is given as 135±6.3 % of baseline. In experiment [2], the “reduction of p-tau expression” value stood at 56.2±8.0%.

In the case of “SCSLPQTSGLQKPES (listed as Mus musculus) [leptin (116-130)]”, in experiment [1], the “synaptic transmission … to Aβ1-42” value is on record as 136±5.5 % of baseline. Also, the “reduction of p-tau expression” value in experiment [2] was 58.9 ± 4.6%. Further, the “thioflavin S fluorescent signal per cell” value in experiment [3] is reported as “amyloid propagation following seeding is greatly reduced”. Regarding “SCSLPQ (listed as Mus musculus) [leptin (116-121)]”, in experiment [2], the “reduction of p-tau expression” value is on record as 58.1±4.0%. Besides, the “thioflavin S fluorescent signal per cell” value in experiment [3] is given as “prevent the accumulation of amyloid beta”.

The record behind these values is patent publication US20200255492A1, “LEPTIN PEPTIDES AND THEIR USE FOR TREATING NEUROLOGICAL DISORDERS” (UNIVERSITY OF DUNDEE, priority 2017, published 2020).
